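Tested at 5 concentrations; 48 h exposure; 96-well plates; endpoints linearly interpolated, else capped at highest concentration. GI50: concentration for 50% inhibition of growth.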 Activity calls are given as the source filed them. Rule as the data show it: active = GI50 up to about 1.1 µM and inactive = higher.
What was measured:
Assay in all cases: NCI tumour cell line growth inhibition, 48 h
HCC 2998 = tested on: HCC 2998
SK-MEL-5 = tested on: SK-MEL-5
SR = tested on: SR
TK-10 = tested on: TK-10
RPMI-8226 = tested on: RPMI-8226
ACHN = tested on: ACHN
HL-60 = tested on: HL-60
CCRF-CEM = tested on: CCRF-CEM
HCT-116 = tested on: HCT-116
MOLT-4 = tested on: MOLT-4
NCI-H23 = tested on: NCI-H23
HT-29 = tested on: HT-29
NCI-H460 = tested on: NCI-H460
BT-549 = tested on: BT-549
EKVX = tested on: EKVX
PC-3 = tested on: PC-3
SF-268 = tested on: SF-268
LOX IMVI = tested on: LOX IMVI
SK-OV-3 = tested on: SK-OV-3
NCI-H522 = tested on: NCI-H522
CAKI-1 = tested on: CAKI-1
HCT-15 = tested on: HCT-15
Hs-578T = tested on: Hs-578T
786-0 = tested on: 786-0
A549 = tested on: A549
UACC-62 = tested on: UACC-62
MDA-MB-231 = tested on: MDA-MB-231
MDA-MB-435 = tested on: MDA-MB-435
SK-MEL-28 = tested on: SK-MEL-28
MCF7 = tested on: MCF7
T47D = tested on: T47D
SN12C = tested on: SN12C
OVCAR-8 = tested on: OVCAR-8
SF-295 = tested on: SF-295
MDA-N = tested on: MDA-N
SF-539 = tested on: SF-539
UACC-257 = tested on: UACC-257
COLO 205 = tested on: COLO 205
SW-620 = tested on: SW-620
KM12 = tested on: KM12
IGROV-1 = tested on: IGROV-1
M14 = tested on: M14
HOP-62 = tested on: HOP-62
DU-145 = tested on: DU-145
A498 = tested on: A498
Malme-3M = tested on: Malme-3M
K562 = tested on: K562

SMILES: Cc1nn(C(=O)Cc2ccccc2)c2c1C(c1ccc([N+](=O)[O-])cc1)SC(=N)N2 (configuration not stated)
- GI50 (HCC 2998): > 100 µM (inactive)
- GI50 (SK-MEL-5): > 100 µM (inactive)
- GI50 (SR): > 100 µM (inactive)
- GI50 (TK-10): > 100 µM (inactive)
- GI50 (RPMI-8226): > 100 µM (inactive)
- GI50 (ACHN): > 100 µM (inactive)
- GI50 (HL-60): > 100 µM (inactive)
- GI50 (CCRF-CEM): > 100 µM (inactive)
- GI50 (HCT-116): > 100 µM (inactive)
- GI50 (MOLT-4): > 100 µM (inactive)
- GI50 (NCI-H23): > 100 µM (inactive)
- GI50 (HT-29): > 100 µM (inactive)
- GI50 (NCI-H460): > 100 µM (inactive)
- GI50 (BT-549): > 100 µM (inactive)
- GI50 (EKVX): > 100 µM (inactive)
- GI50 (PC-3): > 100 µM (inactive)
- GI50 (SF-268): > 100 µM (inactive)
- GI50 (LOX IMVI): > 100 µM (inactive)
- GI50 (SK-OV-3): > 100 µM (inactive)
- GI50 (NCI-H522): > 100 µM (inactive)
- GI50 (CAKI-1): > 100 µM (inactive)
- GI50 (HCT-15): > 100 µM
- GI50 (Hs-578T): > 100 µM (inactive)
- GI50 (786-0): > 100 µM (inactive)
- GI50 (A549): > 100 µM (inactive)
- GI50 (UACC-62): > 100 µM (inactive)
- GI50 (MDA-MB-231): > 100 µM (inactive)
- GI50 (MDA-MB-435): > 100 µM (inactive)
- GI50 (SK-MEL-28): > 100 µM (inactive)
- GI50 (MCF7): > 100 µM (inactive)
- GI50 (T47D): > 100 µM (inactive)
- GI50 (SN12C): > 100 µM (inactive)
- GI50 (OVCAR-8): > 100 µM (inactive)
- GI50 (SF-295): > 100 µM (inactive)
- GI50 (MDA-N): > 100 µM (inactive)
- GI50 (SF-539): > 100 µM (inactive)
- GI50 (UACC-257): > 100 µM (inactive)
- GI50 (COLO 205): > 100 µM (inactive)
- GI50 (SW-620): > 100 µM (inactive)
- GI50 (KM12): > 100 µM (inactive)
- GI50 (IGROV-1): > 100 µM (inactive)
- GI50 (M14): > 100 µM (inactive)
- GI50 (HOP-62): > 100 µM (inactive)
- GI50 (DU-145): > 100 µM (inactive)
- GI50 (A498): > 100 µM (inactive)
- GI50 (Malme-3M): > 100 µM (inactive)
- GI50 (K562): > 100 µM (inactive)

— ChEMBL document CHEMBL1201862, “PubChem BioAssay data set” (2004)
